The test system of data set [1] is Thlaspi arvense. The experiment in a line: Herbicidal activity against Thlaspi arvense assessed as weed control at 0.02 M measured after 6 days of treatment relative to control. It is filed as functional.
Data set [2] relates to Chenopodium album. Description: Herbicidal activity against Chenopodium album assessed as weed control at 0.01 M measured after 6 days of treatment relative to control. In kind it is functional.
Data set [3] concerns Capsella bursa-pastoris. The experiment in a line: Herbicidal activity against Capsella bursa-pastoris assessed as weed control at 0.01 M measured after 30 days of treatment relative to control. It is filed as functional.
For data set [4], the system named is Capsella bursa-pastoris. The experiment in a line: Herbicidal activity against Capsella bursa-pastoris assessed as weed control at 0.02 M measured after 6 days of treatment relative to control. In kind it is functional.
In data set [5] the test system is Thlaspi arvense. The experiment in a line: Herbicidal activity against Thlaspi arvense assessed as weed control at 0.01 M measured after 30 days of treatment relative to control. In kind it is functional.
Data set [6] relates to Capsella bursa-pastoris. Description: Herbicidal activity against Capsella bursa-pastoris assessed as weed control at 0.01 M measured after 6 days of treatment relative to control. It is filed as functional.
The subject of data set [7] is Chenopodium album. The experiment in a line: Herbicidal activity against Chenopodium album assessed as weed control at 0.02 M measured after 30 days of treatment relative to control. In kind it is functional.
Data set [8] concerns Chenopodium album. Description: Herbicidal activity against Chenopodium album assessed as weed control at 0.01 M measured after 30 days of treatment relative to control. In kind it is functional.
Data set [9] has as its system Capsella bursa-pastoris. Description: Herbicidal activity against Capsella bursa-pastoris assessed as weed control at 0.02 M measured after 30 days of treatment relative to control. In kind it is functional.
Data set [10] deals with Thlaspi arvense. The experiment in a line: Herbicidal activity against Thlaspi arvense assessed as weed control at 0.02 M measured after 30 days of treatment relative to control. In kind it is functional.
Data set [11] relates to Thlaspi arvense. Description: Herbicidal activity against Thlaspi arvense assessed as weed control at 0.01 M measured after 6 days of treatment relative to control. It is filed as functional.
Data set [12] concerns Chenopodium album. Description: Herbicidal activity against Chenopodium album assessed as weed control at 0.02 M measured after 6 days of treatment relative to control. In kind it is functional.
For data set [13] the following is noted: buffer.
Data set [14] can be described thus: Decomposition temperature of the compound. In kind it is physicochemical.
Data set [15] in a line: Glass transition temperature of the compound. It is filed as physicochemical.
Data set [16] in a line: Decomposition temperature of 5 % of the compound. In kind it is physicochemical.
The nature of data set [17]: Melting point of the compound. It is filed as physicochemical.
Data set [18] has as its system Chenopodium album. Description: Herbicidal activity against Chenopodium album assessed as weed control at 450 g/ha. It is filed as functional.
Data set [19] deals with Centaurea cyanus. Description: Herbicidal activity against Centaurea cyanus assessed as weed control at 450 g/ha. It is filed as functional.
A short description of data set [20]: Cold crystallization temperature of the compound. It is filed as physicochemical.

As to `O=C([O-])COc1ccc(Cl)cc1Cl.[Na+]`, the Activity in [1] was 48%; in data set [2] it was 55%; in data set [3] it was 100%; in data set [4], 55%; in data set [5], 100%; in [6], 28%. The Activity is 75% in [7]; 25% in data set [8]; 100% in [9]; 100% in data set [10]; 31% in [11]; 60% in [12].

As to `CCCC[N+]1(C)CCOCC1.O=C([O-])COc1ccc(Cl)cc1Cl`, in [13], the solubility result is on record as “soluble”.

With `CCCC[N+]1(C)CCCC1.O=C([O-])COc1ccc(Cl)cc1Cl`, in [13], the solubility entry is reported as “soluble”.

Take `CCCCCOC[N+]1(C)CCCCC1.O=C([O-])COc1ccc(Cl)cc1Cl`: the solubility entry in [13] is on record as “soluble”.

For `CCCOC[N+]1(C)CCCCC1.O=C([O-])COc1ccc(Cl)cc1Cl`, the solubility entry in [13] is recorded as “soluble”.

With `C[N+]1(C)CCCCC1.O=C([O-])COc1ccc(Cl)cc1Cl`, in data set [13], the solubility result is “soluble”.

With `C[n+]1cccc(C(N)=O)c1.O=C([O-])COc1ccc(Cl)cc1Cl`, the solubility entry in data set [13] was “soluble”.

For the compound `CCCCCCCCCCCCCCCC[n+]1ccccc1.O=C([O-])COc1ccc(Cl)cc1Cl`, the solubility result in data set [13] is recorded as “soluble”.

As for `CCCCCCCCSCn1cc[n+](C)c1.O=C([O-])COc1ccc(Cl)cc1Cl`, in data set [13], the solubility entry is on record as “soluble”.

Take `CCCCCCCCOCn1cc[n+](C)c1.O=C([O-])COc1ccc(Cl)cc1Cl`: the solubility entry in data set [13] is listed as “soluble”.

As for `CCCCCCCCCCSC[N+](C)(C)CCO.O=C([O-])COc1ccc(Cl)cc1Cl`, the T in [14] is 219 °C; in data set [15], -35 °C; in data set [16], 205 °C. Also, in [13], the solubility entry is given as “soluble”.

Turning to `C[N+](C)(CCO)COC1CCCCCCCCCCC1.O=C([O-])COc1ccc(Cl)cc1Cl`, the Tm in data set [17] worked out at 108 °C. In addition, the results for the T in data set [14] and in [16] were 280 °C and 242 °C, respectively.

`CNC.O=C(O)COc1ccc(Cl)cc1Cl` [2,4-D-Dimethylammonium]: the Activity in data set [18] came to 60%; in data set [19] it was 20%.

For `CCCCCC(CC)OC(=O)COc1ccc(Cl)cc1Cl` [2,4-D-Ethylhexyl], the results for the Activity in [18] and in data set [19] were 100% and 80%, respectively.

As for `C=CC[N+](C)(C)CC=C.O=C([O-])COc1ccc(Cl)cc1Cl` [DIALLYLDIMETHYLAMMONIUM(2,4-DICHLOROPHENOXY)ACETATE], the T was 196 °C in [14], -42 °C in data set [15] and 187 °C in data set [16]. For the same compound, the solubility entry in [13] was “soluble”.

For the compound `CCCCCCCCCC[N+](C)(C)CCCCCCCCCC.O=C([O-])COc1ccc(Cl)cc1Cl` [DIDECYLDIMETHYLAMMONIUM(2,4-DICHLOROPHENOXY)ACETATE], the Activity in data set [1] was found to be 96%; in data set [2], 89%; in data set [3], 100%; in data set [4], 99%; in data set [5], 100%; in data set [6], 81%. Also, the Activity in data set [7] is listed as 100%; in [8] it was 100%; in [9], 100%; in data set [10], 100%; in data set [11], 82%; in data set [12], 98%. Also, the Tm in data set [17] was -3 °C. Besides, the T was 260 °C in data set [14], -50 °C in data set [15], 208 °C in data set [16] and -39 °C in data set [20].

With `CCCCCCCCCCCCCCCC[N+](C)(C)CCO.O=C([O-])COc1ccc(Cl)cc1Cl` [DODECYLDI(POLYOXYETHYLENE)METHYLAMMONIUM(2,4-DICHLOROPHENOXY)ACETATE], the values for the T in [14], in data set [15] and in data set [16] were 285 °C, -54 °C and 219 °C, respectively.

Take `CCCCCCCCCCCC[N+](C)(C)CCOc1ccccc1.O=C([O-])COc1ccc(Cl)cc1Cl` [DODECYLDIMETHYLPHENOXYETHYLAMMONIUM(2,4-DICHLOROPHENOXY)ACETATE]: the figures for the T in [14], in data set [15] and in data set [16] were 273 °C, -42 °C and 214 °C, respectively.

Take `CCCCCCCCCCCCCCCC[N+](C)(C)C.O=C([O-])COc1ccc(Cl)cc1Cl` [HEXADECYLTRIMETHYLAMMONIUM(2,4-DICHLOROPHENOXY)ACETATE]: the Tm in data set [17] is -20 °C. The T in [14] turned out to be 253 °C; in [16], 218 °C.

The record behind these values is ChEMBL document CHEMBL3045874, “2,4-D based herbicidal ionic liquids” (Tetrahedron, 2012).
